Here are results for 24 compounds from patent publication US7531545B2, “2-amino-3,4-dihydro-pyrido[3,4-d]pyrimidine derivatives useful as inhibitors of β-secretase (BACE)” (Janssen Pharmaceutica, N.V., priority 2005, dated 2009).

In the test the target is T1, β-secretase (BACE) (Homo sapiens, UniProt P56817).
T1 construct: purchased Panvera
In words: BACE FS1 Assay (% Inhibition and Ki). It is filed as biochemical. The following applies: FS1 substrate; for inhibition at 0.3 µM / % Inhibition (FS) @ 0.3 μM: 0.3 μM test compound; for inhibition at 0.3 µM: read-out: % Inhibition (FS) @ 0.3 μM; for inhibition at 1 µM: read-out: % Inhibition (FS) @ 1 μM; for inhibition at 3 µM: read-out: % Inhibition (FS) @ 3 μM. As to the method: BACE FS1 Assay (% Inhibition and Ki)
The following reagents were used in this assay: sodium acetate, PEG8000 (Sigma), DMSO, HEPES, FS1 substrate [R(AedensE)[…]-(DabcylK)R], β-secretase (BACE) (Panvera), and 96-well plate (HE microplate, Molecular Devices).
The following assay buffers were prepared and used in this assay: (1) enzyme assay buffer (0.05 M sodium acetate, pH5, 0.1% PEG8000 (w/v)), (2) substrate assay buffer (0.05 M sodium acetate, pH5), and (3) compound vehicle (30% DMSO in 50 mM HEPES, pH 7.4).
The FS1-substrate stock solution was prepared in DMSO as a 10 mg/mL solution. The FS1-substrate working solution was prepared by diluting the 10 mg/mL stock solution with substrate assay buffer to a final concentration of 300 μg/mL. The β-secretase (BACE) working solution was prepared by diluting a 0.83 mg/mL BACE stock solution with enzyme assay buffer to a final concentration of 4 μg/mL.
Test compounds were dissolved in DMSO to 10 mM. Compounds were further diluted in vehicle to various concentrations in the range of 405 μM to 4.05 μM (13.5× final compound concentration in screening plate).
The screening procedure for this assay was as follows: 15 μL of BACE working solution was pipetted into each well of a 96-well plate. To each well was then pipetted 2 μL of test compound at the selected concentration. Test compound and BACE were then mixed with a pipettor and incubated for 20 min at room temperature. To each well was then added 10 μL of the FS1 substrate working solution. The plates were then incubated for 1 hour at room temperature. The fluorescence for each well was then measured on an LJL analyst (Ex 360 nm/Em 530 nm).
The procedure for the blank was as follows. 15 μL of assay buffer was pipetted into each well to be used as a blank control. To each well was then added 2 μL of vehicle and […] of FS1-substrate working solution. The plates were then incubated for 1 hour at room temperature. The fluorescence was measured on an LJL analyst (Ex 360 nm/Em 530 nm).
The procedure for the positive control was as follows: 15 μL of BACE working solution was pipetted into each well to be used as a positive control. To each well was then pipetted 2 μL of vehicle. Vehicle and BACE were then mixed with a pipettor and incubated for 20 min at room temperature. To each well was then added 10 μL of the FS1 substrate working solution. The plates were then incubated for 1 hour at room temperature. The fluorescence (F1) was then measured on an LJL analyst (Ex 360 nm/Em 530 nm).
For test compounds, % inhibition was determined at each concentration as follows:
% Inhibition values of less than 30% were indistinguishable from control are listed as ≦30% in Table 18, below.
For test compounds, measured at multiple concentrations, the measured T0 and T60 values were used to calculate an IC50 value using Graphpad Software (or PIR). Ki inhibition was determined as follows: For each compound concentration and positive control, rate of cleavage of substrate (Vi, where i=compound concentration in μM) was determined as Δ Fluorescence/Δ time (min). Cleavage rates (Vi) were plotted as a function of inhibitor concentration in μM [I]. […]

Structures can show the parent of a compound that is named as a salt.

The term inhibition denotes the change of the read-out against control, counted positive when it falls. By Ki is commonly meant the equilibrium dissociation constant of an inhibitor or competing ligand from its target.

T1 sequence (P56817 46-501): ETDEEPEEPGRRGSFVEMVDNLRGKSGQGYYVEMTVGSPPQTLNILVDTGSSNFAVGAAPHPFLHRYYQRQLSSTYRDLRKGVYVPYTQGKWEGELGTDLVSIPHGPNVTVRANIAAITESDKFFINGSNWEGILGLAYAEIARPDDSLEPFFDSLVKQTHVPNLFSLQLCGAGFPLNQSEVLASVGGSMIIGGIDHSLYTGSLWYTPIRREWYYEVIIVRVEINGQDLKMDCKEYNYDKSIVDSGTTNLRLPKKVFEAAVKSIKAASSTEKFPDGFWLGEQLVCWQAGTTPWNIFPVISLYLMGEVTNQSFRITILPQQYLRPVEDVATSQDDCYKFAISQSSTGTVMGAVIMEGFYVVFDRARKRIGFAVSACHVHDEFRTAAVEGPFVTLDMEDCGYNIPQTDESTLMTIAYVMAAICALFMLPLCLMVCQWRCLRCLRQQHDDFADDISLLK

On to `CN(CCCCC(=O)O)C(=O)CC[C@@H](C1CCCCC1)N1Cc2cc(Oc3ccccc3)ncc2N=C1N` [Compound 44], for which the inhibition at 0.3 µM worked out at 61% and the affinity, expressed as Ki, was 148 nM. In addition, the inhibition at 1 µM (1 μM test compound) amounted to 88%. Further, the inhibition at 3 µM (3 μM test compound) was 105%.
On to `CN(C(=O)CC[C@@H](C1CCCCC1)N1Cc2cc(-c3ccccc3F)ncc2N=C1N)C1CCCCC1` [Compound 4], for which the inhibition at 0.3 µM came to 113% and the affinity, expressed as Ki, was 35 nM. For the same compound, the inhibition at 1 µM (1 μM test compound) was 127%. The inhibition at 3 µM (3 μM test compound) stood at 132%.
The corresponding values for `CC(C)(C)OC(=O)NCCN1Cc2cc(Oc3ccccc3)ncc2N=C1N` [Compound 2] are 70%, 91 nM, 102% and 124%.
The corresponding values for `NC1=Nc2cnc(Oc3ccccc3)cc2CN1[C@@H](CCC(=O)N(CCO)[C@H]1CC[C@@H](C(=O)O)CC1)C1CCCCC1` [Compound 37] are 112%, 12 nM, 111% and 114%.
The corresponding values for `CC(C)[C@H](CCC(=O)N(C)[C@@H](COCc1ccccc1)C(=O)O)N1Cc2cc(Oc3ccccc3)ncc2N=C1N` [Compound 52, 2-{[4-(2-Amino-6-phenoxy-4H-pyrido[3,4-d]pyrimidin-3-yl)-5-methyl-(S)-hexanoyl]-methyl-amino}-3-(S)-benzyloxy-propionic acid trifluoroacetate salt] are 107%, 9 nM, 118% and 118%.
As for `CCOC(=O)C1CCC(N(C)C(=O)CCC(C2CCCCC2)N2Cc3cc(Oc4ccccc4)ncc3N=C2N)CC1` (stereo not drawn) [Compound 17], the inhibition at 0.3 µM was found to be 4% and the Ki amounted to 222 nM. In addition, the inhibition at 1 µM (1 μM test compound) came to 61%. Besides, the inhibition at 3 µM (3 μM test compound) turned out to be 86%.
The corresponding values for `CN(C(=O)CC[C@@H](C1CCCCC1)N1Cc2cc(Oc3ccccc3)ncc2N=C1N)C1CCCCC1` [Compound 5] are 125%, 25 nM, 131% and 138%.
The corresponding values for `NC1=Nc2cnc(Oc3ccccc3)cc2CN1CCCC(=O)NC1C2CC3CC(C2)CC1C3` (stereo not drawn) [Compound 6] are 122%, 21 nM, 139% and 138%.
For `CC(C)[C@H](CCC(=O)N(C)C1CCC(c2nnn[nH]2)CC1)N1Cc2cc(Oc3ccccc3)ncc2N=C1N` (stereo partly drawn) [Compound 13, 4-(S)-(2-Amino-6-phenoxy-4H-pyrido[3,4-d]pyrimidin-3-yl)-5-methyl-hexanoic acid methyl-[4-(1H-tetrazol-5-yl)-cyclohexyl]-amide] the same measures were 30%, 517 nM, 63% and 87%.
For the compound `CN(C(=O)CCC(CCO)N1Cc2cc(Oc3ccccc3)ncc2N=C1N)C1CCCCC1` (stereo not drawn) [Compound 22], the inhibition at 0.3 µM was 0% and the affinity, expressed as Ki, was 173 nM. Further, for the setting “1 μM test compound”, the inhibition at 1 µM amounted to 61%. For the same compound, the inhibition at 3 µM (3 μM test compound) came to 93%.
Turning to `CN(C(=O)CCC(C1CCOCC1)N1Cc2cc(Oc3ccccc3)ncc2N=C1N)C1CCC(C(=O)O)CC1` (stereo not drawn) [Compound 26], the inhibition at 0.3 µM turned out to be 110% and the Ki was 22 nM. Also, the inhibition at 1 µM (1 μM test compound) worked out at 124%. In addition, the inhibition at 3 µM (3 μM test compound) was determined as 124%.
As to `CCOC(=O)C1CCC(N(C)C(=O)CCC(C2CCOCC2)N2Cc3cc(Oc4ccccc4)ncc3N=C2N)CC1` (stereo not drawn) [Compound 27], the inhibition at 0.3 µM came out at 16% and the Ki is 193 nM. In addition, the inhibition at 1 µM (1 μM test compound) was 96%. The inhibition at 3 µM (3 μM test compound) came out at 110%.
For `CN(C(=O)CCC(C1CCCCC1)N1Cc2cc(Oc3ccccc3)ncc2N=C1N)C1CCC(C(=O)O)CC1` (stereo not drawn) [Compound 18] the same measures were 119%, 17 nM, 121% and 128%.
`CCOC(=O)CCN(C)C(=O)CC[C@@H](C(C)C)N1Cc2cc(Oc3ccccc3)ncc2N=C1N` [Compound 15]: the inhibition at 0.3 µM was found to be 68% and the affinity, expressed as Ki, was 129 nM. Further, where the note is “1 μM test compound”, the inhibition at 1 µM is 94%. Further, the inhibition at 3 µM (3 μM test compound) was determined as 110%.
For `CC(C)OCCC(CCC(=O)N(C)C1CCCCC1)N1Cc2cc(Oc3ccccc3)ncc2N=C1N` (stereo not drawn) [Compound 24] the same measures were 40%, 234 nM, 71% and 103%.
For `CC(C)C(CCC(=O)N(CCO)C1CCC(C#N)CC1)N1Cc2cc(Oc3ccccc3)ncc2N=C1N` (stereo not drawn) [Compound 10] the same measures were 55%, 207 nM, 80% and 114%.
With `CC(C)[C@H](CCC(=O)N(CCCO)C1CCCCC1)N1Cc2cc(Oc3ccccc3)ncc2N=C1N` [Compound 19], the inhibition at 0.3 µM came out at 88% and the affinity, expressed as Ki, was 55 nM. Besides, the inhibition at 1 µM (1 μM test compound) came to 103%. Besides, under “3 μM test compound”, the inhibition at 3 µM was 104%.
The corresponding values for `COC(=O)[C@H]1CC[C@H](N(C)C(=O)CC[C@@H](C2CCOCC2)N2Cc3cc(Oc4ccccc4)ncc3N=C2N)CC1` [Compound 34] are 96%, 32 nM, 106% and 115%.
`CC(C)[C@H](CO)NC(=O)CC[C@@H](C(C)C)N1Cc2cc(Oc3ccccc3)ncc2N=C1N` [Compound 36]: the “% Inhibition (FS) @ 0.3 μM” value amounted to 114% and the affinity, expressed as Ki, was 21 nM. Also, the “% Inhibition (FS) @ 1 μM” value (1 μM test compound, 1 µM) came out at 112%. Also, the “% Inhibition (FS) @ 3 μM” value (3 μM test compound, 3 µM) is given as 114%.
Consider `NC1=Nc2cnc(Oc3ccccc3)cc2CN1CCNC(=O)C1CCCCC1` [Compound 1], for which the inhibition at 0.3 µM is 75% and the Ki was 166 nM. For the same compound, the inhibition at 1 µM (1 μM test compound) was 102%. For the same compound, for the setting “3 μM test compound”, the inhibition at 3 µM amounted to 110%.
The corresponding values for `CC(C)[C@H](CCC(=O)N[C@H](COCc1ccccc1)C(=O)OCc1ccccc1)N1Cc2cc(Oc3ccccc3)ncc2N=C1N` [Compound 48] are 73%, 36 nM, 107% and 116%.
The corresponding values for `COC(=O)[C@@H](CO)NC(=O)CC[C@@H](C(C)C)N1Cc2cc(Oc3ccccc3)ncc2N=C1N` [Compound 28] are 116%, 17 nM, 124% and 128%.
For `CC(C)C(CCC(=O)N(C)C1CCC(C#N)CC1)N1Cc2cc(Oc3ccccc3)ncc2N=C1N` (stereo not drawn) [Compound 11] the same measures were 47%, 124 nM, 78% and 120%.
For the compound `CC(C)[C@H](CO)NC(=O)CC[C@@H](C(C)C)N1Cc2cc(Oc3ccccc3)ncc2N=C1N` [Compound 29], the “% Inhibition (FS) @ 0.3 μM” value is recorded as 93% and the Ki worked out at 31 nM. For the setting “1 μM test compound”, the inhibition at 1 µM came to 115%. Moreover, the inhibition at 3 µM (3 μM test compound) was found to be 119%.
